According to patent US20040034082A1, “Utilization of pyrazoline derivatives in the preparation of a medicament for the prevention and/or treatment of proliferative cell diseases” (priority 2001, published 2004):

With `Cc1c(F)cccc1C1CC(C(F)(F)F)=NN1c1ccc(S(N)(=O)=O)cc1` (centres unmarked) [Example 55] the melting point was 193 to 195 °C. Compound `COC(=O)C1=NN(c2ccc(S(C)(=O)=O)cc2)C(c2ccc(C)cc2)C1` (centres unmarked) [Example 39] has a melting point of 155 to 160 °C. For `NS(=O)(=O)c1ccc(N2N=C(C(F)(F)F)CC2c2ccc(F)c(Cl)c2)cc1` (centres unmarked) [Example 21], the melting point was 171 to 173 °C. `Cc1ccc(C2CC(C(=O)O)=NN2c2ccc(S(N)(=O)=O)cc2)cc1` (centres unmarked) [Example 34] gave a melting point of 172 to 176 °C. `CS(=O)(=O)c1ccc(C2CC(C(F)(F)F)=NN2c2ccc(Cl)cc2)cc1` (centres unmarked) [Example 65] showed a melting point of 117 to 121 °C. Work on `Cc1ccc(C2CC(C(N)=O)=NN2c2ccc(S(N)(=O)=O)cc2)cc1` (centres unmarked) [Example 41] yielded a melting point of 210 to 215 °C. For `CC1=NN(c2ccc(S(N)(=O)=O)cc2)C(c2ccc(C)cc2)C1` (centres unmarked) [Example 28], the melting point was 195 to 197 °C. Compound `Cc1ccc(C2CC(C(F)(F)F)=NN2c2ccc(S(N)(=O)=O)cc2)cc1C` (centres unmarked) [Example 44] has a melting point of 152 to 155 °C. With `Cc1ccc(N2N=C(C(F)(F)F)CC2c2ccc(S(C)(=O)=O)cc2)c(C)c1` (centres unmarked) [Example 71] the melting point was 132 to 133 °C. Work on `NS(=O)(=O)c1ccc(C2CC(C(F)(F)F)=NN2c2ccc(F)cc2)cc1` (centres unmarked) [Example 76] yielded a melting point of 138 to 140 °C. `Cc1ccc(C2CC(C(F)(F)F)=NN2c2ccc(S(C)(=O)=O)cc2)cc1` (centres unmarked) [Example 7] gave a melting point of 115 to 119 °C. With `Cc1ccc(C2CC(C(F)(F)F)=NN2c2ccc(S(N)(=O)=O)cc2)c(C)c1` (centres unmarked) [Example 24] the melting point was 158 to 160 °C. For `COC(=O)C1=NN(c2ccc(S(N)(=O)=O)cc2)C(c2ccccc2)C1` (centres unmarked) [Example 38], the melting point was 84 to 90 °C. With `Cc1ccc(C2CC(C(=O)O)=NN2c2ccc(S(C)(=O)=O)cc2)cc1` (centres unmarked) [Example 36] the melting point was 202 to 205 °C. Work on `COC(=O)C1=NN(c2ccc(S(N)(=O)=O)cc2)C(c2ccc(C)cc2)C1` (centres unmarked) [Example 37] yielded a melting point of 192 to 197 °C. For `CS(=O)(=O)c1ccc(C2CC(C(F)(F)F)=NN2c2ccc(Cl)cc2Cl)cc1` (centres unmarked) [Example 74], the melting point was 103 to 106 °C. `CS(=O)(=O)c1ccc(C2CC(C(F)(F)F)=NN2c2ccccc2F)cc1` (centres unmarked) [Example 67] gave a melting point of 98 to 99 °C. For `NS(=O)(=O)c1ccc(N2N=C(C(=O)O)CC2c2ccccc2)cc1` (centres unmarked) [Example 35], the melting point was 157 to 164 °C. `COc1ccc(C2CC(C(F)(F)F)=NN2c2ccc(S(N)(=O)=O)cc2)cc1C` (centres unmarked) [Example 45] showed a melting point of 170 to 175 °C. With `NS(=O)(=O)c1ccc(N2N=C(C(F)(F)F)CC2c2cccc(F)c2F)cc1` (centres unmarked) [Example 23] the melting point was 152 to 154 °C. `NS(=O)(=O)c1ccc(N2N=C(C(F)(F)F)CC2c2ccccc2F)cc1` (centres unmarked) [Example 16] showed a melting point of 166 to 168 °C. With `CS(=O)(=O)c1ccc(C2CC(C(F)(F)F)=NN2c2cccc(F)c2)cc1` (centres unmarked) [Example 69] the melting point was 116 to 117 °C. For `COc1ccc(C2CC(C(F)(F)F)=NN2c2ccc(S(N)(=O)=O)cc2)c(F)c1` (centres unmarked) [Example 47], the melting point was 157 to 159 °C. For `COc1ccc(C2CC(C(F)(F)F)=NN2c2ccc(S(N)(=O)=O)cc2)c(C)c1` (centres unmarked) [Example 56], the melting point was 148 to 150 °C. `CS(=O)(=O)c1ccc(N2N=CCC2c2ccccc2)cc1` (centres unmarked) [Example 32] gave a melting point of 197 to 202 °C. `CS(=O)(=O)c1ccc(N2N=C(C(F)(F)F)CC2c2cccc(F)c2)cc1` (centres unmarked) [Example 19] showed a melting point of 149 to 151 °C. For `COc1cc(F)ccc1C1CC(C(F)(F)F)=NN1c1ccc(S(N)(=O)=O)cc1` (centres unmarked) [Example 49], the melting point was 179 to 182 °C. With `Cc1ccc(C2CC(C(F)(F)F)=NN2c2ccc(S(N)(=O)=O)cc2)cc1` (centres unmarked) [Example 1] the melting point was 140 to 143 °C. With `CS(=O)(=O)c1ccc(N2N=C(C(F)(F)F)CC2c2ccccc2)cc1` (centres unmarked) [Example 6] the melting point was 137 to 140 °C. Compound `NS(=O)(=O)c1ccc(N2N=C(C(F)(F)F)CC2c2ccc(C(F)(F)F)cc2C(F)(F)F)cc1` (centres unmarked) [Example 54] has a melting point of 212 to 214 °C. Compound `CS(=O)(=O)c1ccc(N2N=C(C(F)(F)F)CC2c2ccccc2F)cc1` (centres unmarked) [Example 17] has a melting point of 117 to 121 °C. In the case of `NS(=O)(=O)c1ccc(N2N=C(C(F)(F)F)CC2c2ccccc2Cl)cc1` (centres unmarked) [Example 60], the melting point is reported as 157 to 159 °C. Compound `NS(=O)(=O)c1ccc(N2N=CCC2c2ccccc2)cc1` (centres unmarked) [Example 31] has a melting point of 206 to 208 °C. `Cc1cccc(N2N=C(C(F)(F)F)CC2c2ccc(S(C)(=O)=O)cc2)c1` (centres unmarked) [Example 70] gave a melting point of 114 to 116 °C. `CS(=O)(=O)c1ccc(N2N=C(C(F)(F)F)CC2c2ccc(Cl)cc2Cl)cc1` (centres unmarked) [Example 12] showed a melting point of 198 to 200 °C. Compound `NS(=O)(=O)c1ccc(N2N=C(C(F)(F)F)CC2c2ccccc2)cc1` (centres unmarked) [Example 5] has a melting point of 156 to 157 °C. Work on `NS(=O)(=O)c1ccc(N2N=C(C(F)(F)F)CC2c2ccc(F)c(F)c2)cc1` (centres unmarked) [Example 11] yielded a melting point of 153 to 155 °C. `NS(=O)(=O)c1ccc(N2N=C(C(F)(F)F)CC2c2cccc(F)c2)cc1` (centres unmarked) [Example 18] gave a melting point of 132 to 133 °C. In the case of `CC1=NN(c2ccccc2)C(c2ccc(S(C)(=O)=O)cc2)C1` (centres unmarked) [Example 77], the melting point is reported as 132 to 135 °C. `Cc1ccc(C2CC(C(N)=O)=NN2c2ccc(S(C)(=O)=O)cc2)cc1` (centres unmarked) [Example 42] gave a melting point of 128 to 132 °C. `Cc1cc(F)ccc1C1CC(C(F)(F)F)=NN1c1ccc(S(N)(=O)=O)cc1` (centres unmarked) [Example 62] gave a melting point of 154 to 160 °C. Work on `NS(=O)(=O)c1ccc(N2N=C(C(F)(F)F)CC2c2ccc(F)c(F)c2F)cc1` (centres unmarked) [Example 51] yielded a melting point of 159 to 161 °C. For `CC1=NN(c2ccc(S(N)(=O)=O)cc2)C(c2ccc(F)cc2)C1` (centres unmarked) [Example 26], the melting point was 206 to 208 °C. Compound `Cc1ccccc1C1CC(C(F)(F)F)=NN1c1ccc(S(N)(=O)=O)cc1` (centres unmarked) [Example 14] has a melting point of 124 to 126 °C. For `NS(=O)(=O)c1ccc(N2N=C(C(F)(F)F)CC2c2ccc(F)cc2Cl)cc1` (centres unmarked) [Example 52], the melting point was 167 to 169 °C. With `NS(=O)(=O)c1ccc(N2N=C(C(F)(F)F)CC2c2ccc(OC(F)(F)F)cc2)cc1` (centres unmarked) [Example 22] the melting point was 134 to 137 °C. In the case of `NS(=O)(=O)c1ccc(N2N=C(C(F)(F)F)CC2c2ccc(F)cc2C(F)(F)F)cc1` (centres unmarked) [Example 58], the melting point is reported as 174 to 177 °C. For `CS(=O)(=O)c1ccc(N2N=C(C(F)(F)F)CC2c2ccc(F)c(F)c2)cc1` (centres unmarked) [Example 25], the melting point was 132 to 135 °C. Work on `NS(=O)(=O)c1ccc(N2N=C(C(F)(F)F)CC2c2ccc(Cl)cc2Cl)cc1` (centres unmarked) [Example 13] yielded a melting point of 143 to 145 °C. With `COc1ccc(C2CC(C(F)(F)F)=NN2c2ccc(S(N)(=O)=O)cc2)cc1F` (centres unmarked) [Example 46] the melting point was 108 to 114 °C. For `NS(=O)(=O)c1ccc(N2N=C(C(F)F)CC2c2ccc(F)cc2F)cc1` (centres unmarked) [Example 57], the melting point was 157 to 160 °C. Work on `CS(=O)(=O)c1ccc(N2N=C(C(F)(F)F)CC2c2ccc(F)cc2)cc1` (centres unmarked) [Example 9] yielded a melting point of 121 to 122 °C. Work on `CC1(c2ccccc2)CC(C(F)(F)F)=NN1c1ccc(S(N)(=O)=O)cc1` (centres unmarked) [Example 2] yielded a melting point of 60 to 66 °C. Compound `CC1=NN(c2ccc(S(C)(=O)=O)cc2)C(c2ccc(C(F)(F)F)cc2)C1` (centres unmarked) [Example 33] has a melting point of 136 to 138 °C. `CC1=NN(c2ccc(S(N)(=O)=O)cc2)C(c2ccc(C(F)(F)F)cc2)C1` (centres unmarked) [Example 30] gave a melting point of 190 to 194 °C. In the case of `COc1ccc(C2CC(C(F)(F)F)=NN2c2ccc(S(N)(=O)=O)cc2)cc1` (centres unmarked) [Example 20], the melting point is reported as 125 to 128 °C. In the case of `Cc1ccc(C2CC(C#N)=NN2c2ccc(S(C)(=O)=O)cc2)cc1` (centres unmarked) [Example 43], the melting point is reported as 162 to 164 °C. `Cc1cc(Cl)ccc1N1N=C(C(F)(F)F)CC1c1ccc(S(C)(=O)=O)cc1` (centres unmarked) [Example 68] gave a melting point of 104 to 108 °C. `Cc1ccc(N2N=C(C(F)(F)F)CC2c2ccc(S(C)(=O)=O)cc2)cc1` (centres unmarked) [Example 4] gave a melting point of 140 to 143 °C. With `NS(=O)(=O)c1ccc(N2N=C(C(F)(F)F)CC2c2ccc(Cl)cc2F)cc1` (centres unmarked) [Example 61] the melting point was 180 to 185 °C. `NS(=O)(=O)c1ccc(N2N=C(C(F)(F)F)CC2c2ccc(C(F)(F)F)cc2F)cc1` (centres unmarked) [Example 53] gave a melting point of 170 to 173 °C. In the case of `NS(=O)(=O)c1ccc(N2N=C(C(F)(F)F)CC2c2ccc(F)cc2)cc1` (centres unmarked) [Example 8], the melting point is reported as 154 to 156 °C. `Cc1ccc(C2CC(C(F)(F)F)=NN2c2ccc(S(N)(=O)=O)cc2)c(F)c1` (centres unmarked) [Example 63] gave a melting point of 166 to 167 °C. `CS(=O)(=O)c1ccc(C2CC=NN2c2ccc(F)cc2)cc1` (centres unmarked) [Example 78] gave a melting point of 155 to 160 °C. With `CS(=O)(=O)c1ccc(C2CC(C(F)(F)F)=NN2c2ccccc2)cc1` (centres unmarked) [Example 66] the melting point was 114 to 115 °C. `Cc1cccc(C2CC(C(F)(F)F)=NN2c2ccc(S(N)(=O)=O)cc2)c1` (centres unmarked) [Example 15] showed a melting point of 125 to 128 °C. Work on `CC1=NN(c2ccc(S(C)(=O)=O)cc2)C(c2ccc(C)cc2)C1` (centres unmarked) [Example 29] yielded a melting point of 113 to 117 °C. With `CC1=NN(c2ccc(S(C)(=O)=O)cc2)C(c2ccc(F)cc2)C1` (centres unmarked) [Example 27] the melting point was 120 to 123 °C. `Cc1ccc(C2CC(C(F)F)=NN2c2ccc(S(N)(=O)=O)cc2)c(C)c1` (centres unmarked) [Example 50] showed a melting point of 181 to 183 °C. Work on `COc1ccc(C2CC(C(F)(F)F)=NN2c2ccc(S(N)(=O)=O)cc2)c(OC)c1` (centres unmarked) [Example 48] yielded a melting point of 121 to 126 °C. In the case of `NC(=O)C1=NN(c2ccc(S(N)(=O)=O)cc2)C(c2ccccc2)C1` (centres unmarked) [Example 40], the melting point is reported as 200 to 205 °C.
